One data set has as its target CDK9/CyclinD3 (Homo sapiens (Human), UniProt P50750). Put plainly: Kinase inhibitory activity, ADP-Glo Kinase Assay, CDK9/CyclinD3. The class given is biochemical. The method, then:
1.1 Instrument and Kit Information
(§1) 1.2 Experimental Preparation • 1.2.1 Preparation of Kinase Reaction Buffer I: The 5×Reaction Buffer A (Promega; V307A-C) provided in the kit was mixed and diluted with MILLI-Q® H2O and 0.1 M DTT (dithiothreitol) to give 4× kinase buffer, and then MILLI-Q® H2O was further added to finally formulate the solution into 1× Kinase buffer.
(§2) 1 μl of 10 mM standard substance stock solution was taken and added to 9 μl of kinase reaction buffer I and mixed well; then 90 μl of kinase reaction buffer I was added and mixed well; then 100 μl of kinase reaction buffer I was added and mixed well. The final concentration was 50 μM. • b. 40 μl of kinase reaction buffer II was added into B2 to B10 of a 96-well plate, and 50 μl of the above solution was added into B1; • c. 10 μl of solution was taken from well B1, added into B2, and mixed well; then 10 μl of the resulting solution was taken and added into B3, and dilution was carried out in sequence to B9, so as to obtain control solutions that are diluted by 5-fold sequentially. • (2) Preparation of test compound solution: • a. Test compound solutions at a certain concentration were taken, respectively, diluted with kinase reaction buffer I to a final concentration of 50 μM compound solution; • b. 40 μl of kinase reaction buffer II was added into H2 to H10 of the 96-well plate; and 50 μl of the above solution was added into H1; • c. 10 μl of solution was taken from well H1, added into H2, and mixed well; then 10 μl of the resulting solution was taken and added into H3, and dilution was carried out in sequence to H9, so as to obtain test compound solutions that are diluted by 5-fold sequentially. • 1.2.4 Preparation of a mixed solution of reaction substrate and ATP: • a. Preparation of ATP solution: • 200 μl of 0.1 mM ATP solution: 2 μl of 10 mM ATP was added to 198 μl of kinase reaction buffer I; • 300 μl of 50 μM ATP solution: 150 μl of kinase reaction buffer I was added to 150 μl of the above 0.1 mM ATP solution; • b. Preparation of 300 μl of reaction substrate solution: • 150 μl 1 μg/μl reaction substrate stock solution was added to 150 μl kinase reaction buffer I, and mixed well; • c. The above a/b solutions were mixed to obtain mixed solutions, respectively.
(§3) 1.3 Experimental process: • 1.3.1: 2 μl of compound solutions of various concentrations were taken, added to a 384-well plate, and centrifuged 3 minutes; • 1.3.2: 4 μl of kinase solution was added to each well, centrifuged at 5000 rpm and 18° C. for 10 minutes, and shaken on a plate shaker for 10 minutes; • 1.3.3: 4 μl of mixed solution of substrate and ATP was added to each well, centrifuged at 5000 rpm and 18° C. for 10 minutes, and shaken on a plate shaker at 37° C. for 90 minutes; • 1.3.4: The 384-well plate was taken out, and allowed to stand to room temperature; • 1.3.5: 10 μl of ADP-GLO™ reagent was added to each well, centrifuged at 5000 rpm and 18° C. for 18 minutes, and shaken on a plate shaker at 25° C. for 40 minutes, and then the reaction was stopped; • 1.3.6: 20 μl of kinase detection reagent was added to each well, centrifuged at 5000 rpm and 18° C. for 10 minutes, and shaken on a plate shaker at 25° C. for 30 minutes; and • 1.3.7: M1000pro MICROPLATE READER was used to read […] values.
(§4) The inhibition rate of each compound at each concentration point was calculated by the formula as follows and curve fitting was performed by GraphPad Prism 5 software to obtain the IC50 value.
A general note: ADP-Glo first removes unused ATP, then detects ADP through luciferase.

For a further data set, the target named is Pim-1 (Homo sapiens (Human), UniProt P11309). Put plainly: Kinase inhibitory activity on Pim-1. The data set is classed as biochemical. The protocol:
as §1, §2, §3, §4

The target of a further data set is CDK2/CyclinE1 (Homo sapiens (Human), UniProt P24941). Put plainly: Kinase inhibitory activity on CDK2/CyclinE1. The data set is classed as biochemical. The method, then: as §1
1 μl of 10 mM standard substance stock solution was taken and added to 9 μl of kinase reaction buffer I and mixed well; then 90 μl of kinase reaction buffer I was added and mixed well; then 100 μl of kinase reaction buffer I was added and mixed well. The final concentration was 50 μM. • b. 40 μl of kinase reaction buffer II was added into B2 to B10 of a 96-well plate, and 50 μl of the above solution was added into B1; • c. 10 μl of solution was taken from well B1, added into B2, and mixed well; then 10 μl of the resulting solution was taken and added into B3, and dilution was carried out in sequence to B9, so as to obtain control solutions that are diluted by 5-fold sequentially. • (2) Preparation of test compound solution: • a. […]
as §4

Data set [1] can be described thus: Pharmacokinetic determination in mouse (LC/MS/MS of plasma). The class given is in vivo, ICR mice. Conditions: for AUC(0-t): read-out: Area under curve AUC0-t; for AUC(0-inf): read-out: Area under curve AUC0-∞; for half-life: read-out: Half life T1/2 (converted); for MRT: read-out: Retention time MRT. The protocol: Pharmacokinetic Determination of Representative Compounds of this Disclosure in Mouse
The ICR mice were used as the test animals, and the concentrations of the drugs in the plasma of mice at different time points after intragastric administration and intravenous administration of the representative compound of the present disclosure were determined by LC/MS/MS, so as to study the pharmacokinetic behavior of the compounds of the disclosure in mice and evaluate the pharmacokinetic characteristics thereof.
An appropriate amount of sample was weighed, and added with 0.1% hydroxyethyl cellulose/0.5% TWEEN®80 to a final volume to give 0.5 mg/ml solution for intragastric administration.
Whole blood was anticoagulated with EDTA-K2 and centrifuged, the supernatant was removed, and the residue was frozen at −20° C. until sample analysis. […] The plasma samples were treated in the same manner as that employed for plasma samples of the intragastrically administered group. Plasma samples were analyzed by LC-MS/MS, sample pretreatment was performed using protein precipitation method, the linear range of sample analysis was 1-2000 ng/ml, and the lowest quantification limit was 1 ng/ml.

The test system of data set [2] is Human glioma cell line U87 MG. Put plainly: Inhibition of proliferation of the U87 MG cell line (DAPI, In Cell Analyzer). The class given is cell-based. As to conditions: for IC50: Homo sapiens, U-87 MG, 72 hours incubation, read-out: IC50, proliferation of U87MG Cell Line. The protocol:
as §4

Data set [3] can be described thus: Rat pharmacokinetic determination (LC/MS/MS of plasma). The class given is in vivo, SD rats. Conditions: for bioavailability: oral, intragastric 5 mg/kg vs intravenous 2 mg/kg; for AUC(0-inf): read-out: Area under curve AUC0-∞; for half-life: read-out: Half life T1/2 (converted); for AUC(0-t): read-out: Area under curve AUC0-t; for MRT: read-out: Retention time MRT; for Vd: read-out: Apparent volume of distribution VZ; for clearance: read-out: Clearance rate Cl. The protocol: Rat Pharmacokinetic Determination of Representative Compounds of the Present Disclosure
SD rats were used as the test animals, and the concentrations of the drugs in the plasma of rats at different time points after the intravenous administration and intragastric administration of the representative compounds were determined by LC/MS/MS, so as to study the pharmacokinetic behavior of the compounds of the disclosure in rats and evaluate the pharmacokinetic characteristics thereof.
Intragastric administration: An appropriate amount of sample was weighed, and added with 0.1% hydroxyethyl cellulose/0.5% TWEEN®80 to a final volume to give 1 mg/ml solution.
Whole blood was anticoagulated with EDTA-K2 and centrifuged, the supernatant was removed, and the residue was frozen at −20° C. until sample analysis. Plasma samples were analyzed by LC-MS/MS, sample pretreatment was performed using a protein precipitation method, the linear range of sample analysis was 1-2000 ng/ml, and the lowest quantification limit was 1 ng/ml.

Setting [4] is: male, ICR, mouse, plasma, po, mice, single intragastric administration, 5 mg/kg, Mean ± SD.
Where [5] appears, read: male, ICR, mouse, plasma, mice, single intravenous administration, 2 mg/kg, Mean ± SD.
The mark [6] stands for this setting: male, SD, rat, plasma, po, rats, single intragastric administration, 5 mg/kg.
Where [7] appears, read: male, rat, plasma, po, rats, single intragastric administration, 5 mg/kg, Mean ± SD.
Setting [8] is: male, rat, plasma, rats, single intravenous administration, 2 mg/kg, Mean ± SD.

The structures appear in SMILES notation.

Sequence of CDK9/CyclinD3 (P50750 whole entry): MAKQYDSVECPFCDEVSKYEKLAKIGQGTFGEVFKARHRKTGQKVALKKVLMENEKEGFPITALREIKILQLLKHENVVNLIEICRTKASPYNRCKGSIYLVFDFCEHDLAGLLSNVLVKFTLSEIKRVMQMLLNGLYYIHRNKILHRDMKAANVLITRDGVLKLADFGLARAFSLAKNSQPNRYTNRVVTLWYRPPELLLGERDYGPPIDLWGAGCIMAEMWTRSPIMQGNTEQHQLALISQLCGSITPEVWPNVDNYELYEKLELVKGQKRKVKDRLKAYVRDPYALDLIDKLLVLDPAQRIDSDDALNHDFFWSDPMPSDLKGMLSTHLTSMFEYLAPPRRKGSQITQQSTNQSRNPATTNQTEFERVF
Sequence of CDK9/CyclinD3 (O75909 whole entry partner): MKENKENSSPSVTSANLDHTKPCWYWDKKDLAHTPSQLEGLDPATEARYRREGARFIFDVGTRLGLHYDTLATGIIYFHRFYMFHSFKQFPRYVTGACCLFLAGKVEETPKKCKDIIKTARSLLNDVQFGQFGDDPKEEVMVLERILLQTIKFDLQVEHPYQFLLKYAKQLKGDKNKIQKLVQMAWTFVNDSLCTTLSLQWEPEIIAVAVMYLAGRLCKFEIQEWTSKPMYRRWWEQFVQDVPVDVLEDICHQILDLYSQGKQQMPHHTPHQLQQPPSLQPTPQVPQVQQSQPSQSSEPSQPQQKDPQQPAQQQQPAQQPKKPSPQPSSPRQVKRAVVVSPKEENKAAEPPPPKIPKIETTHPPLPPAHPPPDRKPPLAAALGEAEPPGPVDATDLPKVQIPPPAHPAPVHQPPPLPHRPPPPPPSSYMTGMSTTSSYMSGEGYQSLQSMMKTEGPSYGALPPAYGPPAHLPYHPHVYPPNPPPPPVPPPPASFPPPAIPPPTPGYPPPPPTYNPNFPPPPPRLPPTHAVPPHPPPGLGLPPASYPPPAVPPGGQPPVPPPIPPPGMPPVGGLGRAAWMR
Sequence of Pim-1 (P11309 whole entry): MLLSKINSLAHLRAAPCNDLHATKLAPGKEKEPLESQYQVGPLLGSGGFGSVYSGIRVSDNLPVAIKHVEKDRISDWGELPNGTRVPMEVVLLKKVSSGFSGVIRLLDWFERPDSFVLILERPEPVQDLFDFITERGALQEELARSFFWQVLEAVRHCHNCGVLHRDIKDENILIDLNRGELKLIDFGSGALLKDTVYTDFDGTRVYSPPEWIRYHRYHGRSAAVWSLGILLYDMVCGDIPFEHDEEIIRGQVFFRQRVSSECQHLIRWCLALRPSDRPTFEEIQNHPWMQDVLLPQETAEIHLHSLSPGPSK

As to `CCN1CCC(c2ccc(Nc3ncc(F)c(-c4cc(F)c5c(c4)C4(CCCC4)C(C)=N5)n3)nc2)CC1` [Example 12, N-(5-(1-ethylpiperidin-4-yl)pyridin-2-yl)-5-fluoro-4-(7′-fluoro-2′-methylspiro [cyclopentane-1,3′-indol]-5′-yl)pyrimidine-2-amino], the figures for the IC50 against CDK9/CyclinD3, at Pim-1 and against CDK2/CyclinE1 were 57.2 nM, 15.1 nM and 394 nM, respectively.
As a reminder, the MRT is a mean duration of stay, worked out from the concentration-time curve. A word on the clearance: it is the volume of plasma or blood freed of the substance per unit of time. As to `CC1=Nc2c(F)cc(-c3nc(Nc4ccc(C5CCN(C)CC5)cn4)ncc3F)cc2C12CCCC2` [Example 17, 5-Fluoro-4-(7′-fluoro-2′-methylspiro[cyclopentane-1,3′-indol]-5′-yl)-N-(5-(1-methylpiperidin-4-yl)pyridin-2-yl)pyrimidine-2-amino], the IC50 was 5.36 nM at CDK9/CyclinD3, 38.3 nM against Pim-1, 35.4 nM in data set [2] and 2320 nM against CDK2/CyclinE1. For the same compound, the bioavailability in data set [1] (male, ICR, mouse, plasma, oral, mice, intragastric 5 mg/kg vs intravenous 2 mg/kg) worked out at 75.1%; in data set [3] (male, SD, rat, plasma, rats) it was 102%. In addition, the AUC(0-t) was 2130 ± 96.9 ng·h/mL in data set [1] (setting [4]), 1140 ± 77.8 ng·h/mL in data set [1] (setting [5]), 2610 ± 1220 ng·h/mL in data set [3] (setting [7]) and 1020 ± 239 ng·h/mL in data set [3] (setting [8]). Also, the AUC(0-inf) was 2500 ± 387 ng·h/mL in data set [1] (setting [4]), 1327 ± 4 ng·h/mL in data set [1] (setting [5]), 5260 ng·h/mL in data set [3] (setting [6]) and 1220 ± 456 ng·h/mL in data set [3] (setting [8]). The Cmax is 134 ± 11.8 ng/mL in data set [1] (male, ICR, mouse, plasma, po, mice, single intragastric administration, 5 mg/kg, Mean ± SD, read-out: Blood concentration Cmax) and 188 ± 75 ng/mL in data set [3] (male, rat, plasma, po, rats, single intragastric administration, 5 mg/kg, Mean ± SD, read-out: Blood concentration Cmax). For the same compound, the half-life in data set [1] (setting [4]) is 8.38 ± 3.16 h; in data set [1] (setting [5]), 9.1 ± 0.26 h; in data set [3] (setting [6]), 2 h; in data set [3] (setting [8]), 8.67 ± 4.98 h. Also, the MRT in data set [1] (setting [4]) is 9.45 ± 1.05 h; in data set [1] (setting [5]) it was 7.51 ± 0.28 h; in data set [3] (setting [7]), 10.2 ± 0.27 h; in data set [3] (setting [8]), 7.78 ± 1.3 h. Also, the Vd is 19.8 ± 0.81 L/kg in data set [1] (male, ICR, mouse, plasma, mice, single intravenous administration, 2 mg/kg, Mean ± SD, read-out: Apparent volume of distribution VZ) and 19.4 ± 5.89 L/kg in data set [3] (setting [8]). Besides, the “Clearance rate Cl” value in data set [1] (mice, single intravenous administration, 2 mg/kg, Mean ± SD) came to 25.2 ± 1.72 mL/min/kg. Moreover, in data set [1] (relative to LY2835219), the “Bioavailability and half-life in mice, in words” value was “higher bioavailability and longer half-life”. Moreover, in data set [2] (experimental conclusion), the “Inhibitory activity on proliferation of the U87MG cell line, in words” value was “significant inhibitory activity”. Moreover, the clearance in data set [3] (setting [8]) worked out at 30 ± 11.1 mL/min/kg. The “Bioavailability in rats, in words” value in data set [3] (relative to LY2835219) is listed as “higher bioavailability”.
Regarding `CCN1CCN(Cc2ccc(Nc3ncc(F)c(-c4cc(F)c5nc(C)n(C(C)C)c5c4)n3)nc2)CC1` [LY2835219, reference compound], the AUC(0-t) in data set [1] (setting [4]) is 756 ± 34 ng·h/mL; in data set [1] (setting [5]), 674 ± 82.1 ng·h/mL; in data set [3] (setting [7]), 3280 ± 731 ng·h/mL; in data set [3] (setting [8]), 1500 ± 337 ng·h/mL. In addition, the AUC(0-inf) was determined as 765 ± 34 ng·h/mL in data set [1] (setting [4]), 679 ± 81 ng·h/mL in data set [1] (setting [5]) and 3440 ng·h/mL in data set [3] (setting [6]). The clearance in data set [1] (male, ICR, mouse, plasma, mice, single intravenous administration, 2 mg/kg, Mean ± SD, read-out: Clearance rate Cl) stood at 49.6 ± 5.72 mL/min/kg; in data set [3] (setting [8]), 22.4 ± 4.49 mL/min/kg. In addition, in data set [2], the IC50 came to 151 nM. Besides, in data set [3] (male, SD, rat, plasma, rats), the bioavailability turned out to be 87.4%. Also, the Vd in data set [3] (setting [8]) was 6.95 ± 2.43 L/kg. Moreover, the MRT in data set [3] (setting [8]) was 3.82 ± 1.44 h.

The values are drawn from patent US11091476B2, “Protein kinase inhibitors, preparation method and medical use thereof” (Gan & Lee Pharmaceuticals, priority 2015, dated 2021).
